Reference: ChEMBL document CHEMBL1201862, “PubChem BioAssay data set” (2004)
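These data come from cells grown in 96-well plates and exposed to compound for 48 hours at five concentrations. At the GI50, growth is halved.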 The source made the active and inactive calls. Rule as the data show it: active = GI50 up to about 1.1 µM and inactive = higher.

Assays:
Test in all cases: NCI anticancer screen, dose series, 48 h
HCC 2998 = system: HCC 2998
IGROV-1 = system: IGROV-1
NCI-H522 = system: NCI-H522
UACC-62 = system: UACC-62
OVCAR-4 = system: OVCAR-4
ACHN = system: ACHN
DU-145 = system: DU-145
M14 = system: M14
MDA-MB-435 = system: MDA-MB-435
NCI-H460 = system: NCI-H460
UO-31 = system: UO-31
T47D = system: T47D
SF-295 = system: SF-295
SF-268 = system: SF-268
UACC-257 = system: UACC-257
OVCAR-3 = system: OVCAR-3
SK-MEL-5 = system: SK-MEL-5
SK-MEL-28 = system: SK-MEL-28
SK-MEL-2 = system: SK-MEL-2
HT-29 = system: HT-29

Measured: GI50

O=C(O)[C@@H]1CCC(=O)N1C(c1ccc2c(c1)OCO2)c1ccc2c(c1)OCO2
inactive: HCC 2998 > 100 µM | IGROV-1 > 100 µM | NCI-H522 > 100 µM | UACC-62 > 100 µM | OVCAR-4 35.2 µM | ACHN > 100 µM | DU-145 > 100 µM | M14 > 100 µM | MDA-MB-435 > 100 µM | NCI-H460 > 100 µM | UO-31 > 100 µM | T47D > 100 µM | SF-295 > 100 µM | SF-268 > 100 µM | UACC-257 > 100 µM | OVCAR-3 > 100 µM | SK-MEL-5 > 100 µM | SK-MEL-28 > 100 µM | SK-MEL-2 > 100 µM | HT-29 > 100 µM

O=[N+]([O-])c1ccc2c(c1)nc(Cc1ccc(Cl)cc1)n2C[C@@H]1CCCN2CCCCC12 (stereo partly specified)
inactive: HCC 2998 7.64 µM | IGROV-1 9.84 µM | NCI-H522 12.3 µM | UACC-62 15.2 µM | OVCAR-4 9.86 µM | ACHN 13.4 µM | DU-145 17.7 µM | M14 9.79 µM | MDA-MB-435 14.3 µM | NCI-H460 14 µM | UO-31 1.58 µM | T47D 16.7 µM | SF-295 15.3 µM | UACC-257 15.3 µM | OVCAR-3 15.5 µM | SK-MEL-5 14.8 µM | SK-MEL-28 14.6 µM | SK-MEL-2 15.8 µM | HT-29 8.59 µM

CCOC(=O)C(Cc1c2ccccc2cc2ccccc12)(NC(C)=O)C(=O)OCC
inactive: HCC 2998 > 100 µM | IGROV-1 > 45 µM | NCI-H522 64 µM | OVCAR-4 40.4 µM | ACHN > 63.1 µM | DU-145 > 92.5 µM | M14 > 75.9 µM | MDA-MB-435 > 72.4 µM | NCI-H460 > 100 µM | UO-31 > 85.9 µM | T47D 35.8 µM | SF-295 > 65.9 µM | SF-268 36.9 µM | UACC-257 > 100 µM | OVCAR-3 > 64.7 µM | SK-MEL-5 > 50.6 µM | SK-MEL-28 > 100 µM | SK-MEL-2 > 100 µM | HT-29 > 86.9 µM

CCC1=[N+](CC)CCN1CC
inactive: HCC 2998 > 100 µM | IGROV-1 > 100 µM | NCI-H522 > 100 µM | OVCAR-4 > 100 µM | ACHN > 100 µM | DU-145 > 100 µM | M14 > 100 µM | MDA-MB-435 > 100 µM | NCI-H460 > 100 µM | UO-31 > 100 µM | T47D > 100 µM | SF-295 > 100 µM | SF-268 > 100 µM | UACC-257 > 100 µM | OVCAR-3 > 100 µM | SK-MEL-5 > 100 µM | SK-MEL-28 > 100 µM | SK-MEL-2 > 100 µM | HT-29 > 100 µM

CN(C)c1ccc2c(c1)oc(=O)c1ccccc12
inactive: HCC 2998 14.9 µM | IGROV-1 13.7 µM | NCI-H522 8.36 µM | UACC-62 13.6 µM | OVCAR-4 12.3 µM | ACHN 18.5 µM | DU-145 10.7 µM | M14 13 µM | MDA-MB-435 9.31 µM | NCI-H460 10.4 µM | T47D 12.2 µM | SF-295 19.1 µM | SF-268 10.4 µM | UACC-257 14.4 µM | OVCAR-3 4.61 µM | SK-MEL-5 10.7 µM | SK-MEL-28 17.5 µM | SK-MEL-2 6.24 µM | HT-29 10.4 µM

CC1CC[C@]2(C(=O)O)CCC3(C)C(=C2[C@H]1C)C=CC1[C@@]2(C)CC[C@H](O)C(C)(C)C2CC[C@]13C (stereo partly specified)
inactive: HCC 2998 29.7 µM | IGROV-1 27.9 µM | NCI-H522 23.1 µM | UACC-62 42.2 µM | OVCAR-4 30.1 µM | ACHN 16.4 µM | DU-145 16.6 µM | M14 44.9 µM | MDA-MB-435 63.1 µM | NCI-H460 21.6 µM | T47D 19.1 µM | SF-295 19.9 µM | SF-268 27.7 µM | UACC-257 45 µM | OVCAR-3 17.5 µM | SK-MEL-5 21.4 µM | SK-MEL-28 28.3 µM | SK-MEL-2 64.9 µM | HT-29 31.1 µM

C[C@H]1ON2CCC[C@@H]2[C@@H]1C(=O)N1C2CC3CCC2(CS1(=O)=O)C3(C)C (stereo partly specified)
inactive: HCC 2998 > 100 µM | IGROV-1 > 100 µM | NCI-H522 > 100 µM | UACC-62 > 100 µM | OVCAR-4 > 100 µM | ACHN > 100 µM | DU-145 > 100 µM | M14 > 100 µM | MDA-MB-435 > 100 µM | NCI-H460 > 100 µM | T47D > 100 µM | SF-295 > 100 µM | SF-268 > 100 µM | UACC-257 > 100 µM | OVCAR-3 > 100 µM | SK-MEL-5 > 100 µM | SK-MEL-28 > 100 µM | SK-MEL-2 > 100 µM | HT-29 > 100 µM

O=c1[nH]nc(Cc2ccc(Cl)cc2)n1/N=C/c1ccco1
inactive: HCC 2998 > 100 µM | NCI-H522 58.9 µM | UACC-62 74 µM | OVCAR-4 > 100 µM | ACHN > 100 µM | DU-145 > 100 µM | M14 > 100 µM | MDA-MB-435 > 100 µM | NCI-H460 > 100 µM | UO-31 > 100 µM | T47D > 100 µM | SF-295 46.6 µM | SF-268 38.3 µM | UACC-257 > 100 µM | OVCAR-3 > 100 µM | SK-MEL-28 > 100 µM | SK-MEL-2 40.1 µM | HT-29 33.1 µM

CN(C)C(=O)Oc1ccc[n+](C)c1 [PYRIDOSTIGMINE BROMIDE]
inactive: HCC 2998 > 100 µM | IGROV-1 > 100 µM | NCI-H522 > 100 µM | UACC-62 > 100 µM | OVCAR-4 > 100 µM | ACHN > 100 µM | DU-145 > 100 µM | MDA-MB-435 > 100 µM | NCI-H460 > 100 µM | UO-31 > 100 µM | T47D > 100 µM | SF-295 > 100 µM | SF-268 > 100 µM | UACC-257 > 100 µM | OVCAR-3 > 100 µM | SK-MEL-5 > 100 µM | SK-MEL-28 > 100 µM | SK-MEL-2 > 100 µM | HT-29 > 100 µM

N#Cc1c(-c2ccc([N+](=O)[O-])cc2)cc(-c2ccc(Nc3ccnc4cc(Cl)ccc34)cc2)[nH]c1=O
inactive: HCC 2998 > 100 µM | IGROV-1 > 100 µM | NCI-H522 > 100 µM | UACC-62 > 100 µM | OVCAR-4 > 100 µM | ACHN > 100 µM | DU-145 > 100 µM | M14 > 100 µM | MDA-MB-435 > 100 µM | NCI-H460 > 100 µM | UO-31 > 100 µM | T47D > 100 µM | SF-295 > 100 µM | SF-268 > 100 µM | OVCAR-3 > 100 µM | SK-MEL-28 > 100 µM | SK-MEL-2 > 100 µM

Cc1ccc2c(n1)NC(=O)C(Cc1ccccc1)(N=[N+]=[N-])C2=O (stereo unspecified)
inactive: HCC 2998 > 100 µM | IGROV-1 > 100 µM | NCI-H522 > 100 µM | UACC-62 > 100 µM | OVCAR-4 > 100 µM | ACHN > 100 µM | DU-145 > 100 µM | M14 > 100 µM | MDA-MB-435 > 100 µM | NCI-H460 > 100 µM | UO-31 > 100 µM | T47D 67 µM | SF-295 > 100 µM | SF-268 > 100 µM | UACC-257 > 100 µM | OVCAR-3 > 100 µM | SK-MEL-28 > 100 µM | HT-29 > 100 µM
